According to PMC11678777, “Haloperidol-Induced Catalepsy and Its Correlations with Acetylcholinesterase Activity in Different Brain Structures of Mice” (Neurology International, 2024):

Target: T1, commercial enzyme AChE from Electrophorus electricus (Electrophorus electricus, UniProt O42275)
T1 construct: commercial enzyme (Sigma), native
Experiment: Ellman assay, […] nm, 96-well plate
Assay type: biochemical
Conditions: AChE 1 U/mL; phosphate buffer 0.1 mol/L pH 8.0; 10 µL of 20 mmol/L acetylthiocholine iodide in 200 µL; 10 min preincubation, room temperature; Haldol formulation

T1 sequence (O42275 24-633): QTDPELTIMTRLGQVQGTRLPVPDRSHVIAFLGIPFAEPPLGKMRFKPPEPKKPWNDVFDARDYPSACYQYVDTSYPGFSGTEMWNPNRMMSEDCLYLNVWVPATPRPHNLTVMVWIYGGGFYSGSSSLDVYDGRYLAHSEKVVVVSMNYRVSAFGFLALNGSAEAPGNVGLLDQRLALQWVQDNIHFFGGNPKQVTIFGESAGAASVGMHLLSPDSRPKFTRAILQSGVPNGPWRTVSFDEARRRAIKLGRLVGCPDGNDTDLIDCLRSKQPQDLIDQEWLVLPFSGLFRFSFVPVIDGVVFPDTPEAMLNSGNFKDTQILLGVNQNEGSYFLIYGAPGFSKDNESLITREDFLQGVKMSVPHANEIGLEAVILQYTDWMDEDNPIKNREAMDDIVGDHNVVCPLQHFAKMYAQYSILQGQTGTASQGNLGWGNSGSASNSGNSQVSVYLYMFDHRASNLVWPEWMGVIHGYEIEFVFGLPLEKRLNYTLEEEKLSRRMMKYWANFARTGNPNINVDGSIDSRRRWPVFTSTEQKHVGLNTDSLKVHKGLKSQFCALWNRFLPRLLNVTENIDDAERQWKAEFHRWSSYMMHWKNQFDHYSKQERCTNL

O=C(CCCN1CCC(O)(c2ccc(Cl)cc2)CC1)c1ccc(F)cc1 [Haloperidol]
dose-dependent inhibition: Hal inhibited commercial AChE activity in a dose-dependent manner
